The values below come from patent publication US7176316B2, “Amino-piperidine derivatives” (Hoffmann-La Roche Inc., priority 2003, dated 2007).

A word on the IC50: it is the midpoint of a concentration-inhibition curve.

One assay addresses T1, hGlyT-1b (Homo sapiens, UniProt P48067).
T1 sequence (P48067 1-652 isoform P48067-3): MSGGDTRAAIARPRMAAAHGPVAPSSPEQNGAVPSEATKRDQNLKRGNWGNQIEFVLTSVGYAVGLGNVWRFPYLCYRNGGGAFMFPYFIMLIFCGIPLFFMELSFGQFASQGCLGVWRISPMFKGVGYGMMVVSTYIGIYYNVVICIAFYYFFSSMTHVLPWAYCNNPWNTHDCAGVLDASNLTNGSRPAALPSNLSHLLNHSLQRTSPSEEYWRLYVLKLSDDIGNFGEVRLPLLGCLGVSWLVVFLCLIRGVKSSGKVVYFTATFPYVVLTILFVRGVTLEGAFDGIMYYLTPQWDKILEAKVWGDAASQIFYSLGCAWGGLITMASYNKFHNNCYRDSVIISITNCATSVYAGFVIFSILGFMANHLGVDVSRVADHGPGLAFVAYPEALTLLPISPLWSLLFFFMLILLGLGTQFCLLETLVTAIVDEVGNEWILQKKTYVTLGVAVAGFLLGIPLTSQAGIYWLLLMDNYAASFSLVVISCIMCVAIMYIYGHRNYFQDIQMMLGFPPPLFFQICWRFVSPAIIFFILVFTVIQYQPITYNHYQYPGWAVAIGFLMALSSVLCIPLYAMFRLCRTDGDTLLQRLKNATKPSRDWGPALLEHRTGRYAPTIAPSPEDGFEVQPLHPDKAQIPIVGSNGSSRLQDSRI
The assay is described as follows: Glycine uptake inhibition assay (hGlyT-1b), [3H]-glycine uptake in transfected CHO cells.
Settings: not given
Take `O=S(=O)(c1ccc(Cl)c(Cl)c1)N(c1ccccc1)C1CCN([C@@H]2CCCC[C@@H]2c2ccccc2)CC1` (racemic) [Example 1, (+/−)-3,4-Dichloro-N-phenyl-N-[cis-1-(2-phenyl-cyclohexyl)-piperidin-4-yl]-benzenesulfonamide]: the IC50 is 0.048 µM.
Still for that read-out and setting: with `COc1ccc(S(=O)(=O)N(c2cccc(OC)c2)C2CCN([C@@H]3CCCC[C@@H]3c3ccccc3)CC2)cc1` (racemic) [Example 3, (+/−)-4-Methoxy-N-(3-methoxy-phenyl)-N-[cis-1-(2-phenyl-cyclohexyl)-piperidin-4-yl]-benzenesulfonamide] the figure was 0.094 µM; with `COc1ccc(S(=O)(=O)N(c2ccccc2)C2CCN([C@@H]3CCCC[C@@H]3c3ccccc3)CC2)cc1` (racemic) [Example 11, (+/−)-4-Methoxy-N-phenyl-N-[cis-1-(2-phenyl-cyclohexyl)-piperidin-4-yl]-benzenesulfonamide], 0.056 µM.
On the same count and under the same terms, the same measure for `Cc1ccc(S(=O)(=O)N(c2ccc(F)cc2)C2CCN([C@@H]3CCCC[C@@H]3c3ccccc3)CC2)cc1` (racemic) [Example 67, (+/−)-N-(4-Fluoro-phenyl)-4-methyl-N-[cis-1-(2-phenyl-cyclohexyl)-piperidin-4-yl]-benzenesulfonamide]: 0.099 µM.
Compound `COc1ccc(S(=O)(=O)N(c2ccc(F)cc2)C2CCN([C@@H]3CCCC[C@@H]3c3ccccc3)CC2)cc1` (racemic) [Example 69, (+/−)-N-(4-Fluoro-phenyl)-4-methoxy-N-[cis-1-(2-phenyl-cyclohexyl)-piperidin-4-yl]-benzenesulfonamide] gave an IC50 of 0.029 µM.
The same measure, in the same setting: the same measure for `COc1ccc(S(=O)(=O)N(c2cccc(C(F)(F)F)c2)C2CCN([C@@H]3CCCC[C@@H]3c3ccccc3)CC2)cc1` (racemic) [Example 75, (+/−)-4-Methoxy-N-[cis-1-(2-phenyl-cyclohexyl)-piperidin-4-yl]-N-(3-trifluoromethyl-phenyl)-benzenesulfonamide]: 0.068 µM; for `COc1ccc(S(=O)(=O)N(c2ccccc2)C2CCN([C@@H]3CCCC[C@@]3(O)c3ccccc3)CC2)cc1` (racemic) [Example 99, (+/−)-N-[cis-1-(2-Hydroxy-2-phenyl-cyclohexyl)-piperidin-4-yl]-4-methoxy-N-phenyl-benzenesulfonamide]: 0.028 µM; for `COc1ccc(S(=O)(=O)N(c2ccc(Cl)cc2)C2CCN([C@@H]3CCCC[C@@]3(O)c3ccccc3)CC2)cc1` (racemic) [Example 102, (+/−)-N-(4-Chloro-phenyl)-N-[cis-1-(2-Hydroxy-2-phenyl-cyclohexyl)-piperidin-4-yl]-4-methoxy-benzenesulfonamide]: 0.092 µM.
Same read-out and setting: the same measure for `COc1ccc(S(=O)(=O)N(c2ccc(Cl)cc2)C2CCN([C@@H]3CCCC[C@@]3(O)c3cccnc3)CC2)cc1` (racemic) [Example 105, (+/−)-N-(4-Chloro-phenyl)-N-[cis-1-(2-hydroxy-2-pyridin-3-yl-cyclohexyl)-piperidin-4-yl]-4-methoxy-benzenesulfonamide]: 0.084 µM.
On the same count and under the same terms, the same measure for `COc1ccc(S(=O)(=O)N(c2ccccc2)C2CCN([C@@H]3CCCC[C@@]3(O)c3ccc(Cl)cc3)CC2)cc1` (racemic) [Example 107, (+/−)-N-{cis-1-[2-(4-Chloro-phenyl)-2-hydroxy-cyclohexyl]-piperidin-4-yl}-4-methoxy-N-phenyl-benzenesulfonamide]: 0.083 µM; for `COc1ccc(S(=O)(=O)N(c2ccccc2)C2CCN([C@@H]3CCCC[C@@]3(O)c3ccc(F)cc3)CC2)cc1` (racemic) [Example 108, (+/−)-N-{cis-1-[2-(4-Fluoro-phenyl)-2-hydroxy-cyclohexyl]-piperidin-4-yl}-4-methoxy-N-phenyl-benzenesulfonamide]: 0.04 µM.
For `COc1ccc(S(=O)(=O)N(c2ccccc2)C2CCN([C@@H]3CCCC[C@@]3(O)c3ccncc3)CC2)cc1` (racemic) [Example 109, (+/−)-N-[cis-1-(2-Hydroxy-2-pyridin-4-yl-cyclohexyl)-piperidin-4-yl]-4-methoxy-N-phenyl-benzenesulfonamide], the IC50 came to 0.073 µM.
The same measure, in the same setting: the same measure for `COc1ccc(S(=O)(=O)N(c2ccccc2)C2CCN([C@@H]3CCCC[C@@]3(O)c3cccnc3)CC2)cc1` (racemic) [Example 110, (+/−)-N-[cis-1-(2-Hydroxy-2-pyridin-3-yl-cyclohexyl)-piperidin-4-yl]-4-methoxy-N-phenyl-benzenesulfonamide]: 0.076 µM.
Same read-out and setting: with `COc1ccc(S(=O)(=O)N(c2ccccc2)C2CCN([C@@H]3CCCC[C@@]3(O)c3ccccc3C)CC2)cc1` (racemic) [Example 111, (+/−)-N-[cis-1-(2-Hydroxy-2-o-tolyl-cyclohexyl)-piperidin-4-yl]-4-methoxy-N-phenyl-benzenesulfonamide] the figure was 0.068 µM; with `COc1ccc(S(=O)(=O)N(c2ccc(F)cc2)C2CCN([C@@H]3CCCC[C@@]3(O)c3ccccc3)CC2)cc1` (racemic) [Example 112, (+/−)-N-(4-Fluoro-phenyl)-N-[cis-1-(2-Hydroxy-2-phenyl-cyclohexyl)-piperidin-4-yl]-4-methoxy-benzenesulfonamide], 0.061 µM; with `COc1ccc(S(=O)(=O)N(c2ccc(F)cc2)C2CCN([C@@H]3CCCC[C@@]3(O)c3ccc(F)cc3)CC2)cc1` (racemic) [Example 114, (+/−)-N-(4-Fluoro-phenyl)-N-{cis-1-[2-(4-fluoro-phenyl)-2-hydroxy-cyclohexyl]-piperidin-4-yl}-4-methoxy-benzenesulfonamide], 0.066 µM.
Still for that read-out and setting: the same measure for `COc1ccc(S(=O)(=O)N(c2ccc(F)cc2)C2CCN([C@@H]3CCCC[C@@]3(O)c3ccncc3)CC2)cc1` (racemic) [Example 115, (+/−)-N-(4-Fluoro-phenyl)-N-[cis-1-(2-hydroxy-2-pyridin-4-yl-cyclohexyl)-piperidin-4-yl]-4-methoxy-benzenesulfonamide]: 0.071 µM.
`COc1ccc(S(=O)(=O)N(c2cccc(C(F)(F)F)c2)C2CCN([C@@H]3CCCC[C@@]3(O)c3ccncc3)CC2)cc1` (racemic) [Example 120, (+/−)-N-[cis-1-(2-Hydroxy-2-pyridin-4-yl-cyclohexyl)-piperidin-4-yl]-4-methoxy-N-(3-trifluoromethyl-phenyl)-benzenesulfonamide]: the IC50 was 0.091 µM.
Same read-out and setting: with `COc1ccc(S(=O)(=O)N(c2cccc(C(F)(F)F)c2)C2CCN([C@@H]3CCCC[C@@]3(O)c3cccnc3)CC2)cc1` (racemic) [Example 121, (+/−)-N-[cis-1-(2-Hydroxy-2-pyridin-3-yl-cyclohexyl)-piperidin-4-yl]-4-methoxy-N-(3-trifluoromethyl-phenyl)-benzenesulfonamide] the figure was 0.071 µM; with `COc1ccc(S(=O)(=O)N(c2cccc(OC)c2)C2CCN([C@@H]3CCCC[C@@]3(O)c3ccccc3)CC2)cc1` (racemic) [Example 123, (+/−)-N-[cis-1-(2-Hydroxy-2-phenyl-cyclohexyl)-piperidin-4-yl]-4-methoxy-N-(3-methoxy-phenyl)-benzenesulfonamide], 0.095 µM; with `COc1ccc(S(=O)(=O)N(c2cccc(OC)c2)C2CCN([C@@H]3CCCC[C@@]3(O)c3ccc(F)cc3)CC2)cc1` (racemic) [Example 125, (+/−)-N-{cis-1-[2-(4-Fluoro-phenyl)-2-hydroxy-cyclohexyl]-piperidin-4-yl}-4-methoxy-N-(3-methoxy-phenyl)-benzenesulfonamide], 0.096 µM.
Turning to `COc1ccc(S(=O)(=O)N(c2ccccc2)C2CCN([C@@H]3CCCC[C@]3(O)c3ccccc3)CC2)cc1` (racemic) [Example 159, (+/−)-N-[trans-1-(2-Hydroxy-2-phenyl-cyclohexyl)-piperidin-4-yl]-4-methoxy-N-phenyl-benzenesulfonamide], the IC50 was 0.068 µM.
On the same count and under the same terms, with `COc1ccc(S(=O)(=O)N(c2ccc(F)cc2)C2CCN([C@@H]3COCC[C@@]3(O)c3ccccc3)CC2)cc1` (racemic) [Example 163, (+/−)-N-(4-Fluoro-phenyl)-N-[cis-1-(4-hydroxy-4-phenyl-tetrahydro-pyran-3-yl)-piperidin-4-yl]-4-methoxy-benzenesulfonamide] the figure was 0.085 µM; with `COc1ccc(S(=O)(=O)N(c2ccccc2)C2CCN([C@@H]3CCCC[C@@]3(O)c3ccccc3)CC2)cc1` [Example 100, (+)-N-[cis-1-(2-Hydroxy-2-phenyl-cyclohexyl)-piperidin-4-yl]-4-methoxy-N-phenyl-benzenesulfonamide], 0.015 µM.

Still in this assay, the particulars now being: read-out: IC50 (μM) at GlyT-1.
Consider “(+)-4-Methoxy-N-phenyl-N-[cis-1-(2-phenyl-cyclohexyl)-piperidin-4-yl]-benzenesulfonamide [Example 96]”, for which the IC50 turned out to be 0.049 µM.
